Data on 2 compounds can be found in patent US20210129406A1, “DRUG SOLVATES IN THERMAL PROCESSES TO MAKE SOLID DISPERSIONS AT LOWER PROCESSING TEMPERATURES” (BOARD OF REGENTS, THE UNIVERSITY OF TEXAS SYSTEM, priority 2019, published 2021).

Molecules are shown by their SMILES.

The conditions of series [1]: cited from earlier work.
Series [2] in a line: Solid-state stability of carbamazepine dihydrate (PXRD) at room temperature, 56% relative humidity. It counts as physicochemical.
Description: CBZ dihydrate was prepared by suspending CBZ anhydrate in water for 24 hours.

Broadly, the pKa is the negative logarithm of the acid dissociation constant. For the compound `NC(=O)N1c2ccccc2C=Cc2ccccc21` [carbamazepine], the pKa in series [1] is 13.4.
For the compound `NC(=O)N1c2ccccc2C=Cc2ccccc21` [carbamazepine dihydrate], in series [2] (56% relative humidity at room temperature throughout the whole experiments), the “stability of the dihydrate form” value was “stayed stable”. The “stability of the dihydrate form (PXRD)” value in series [2] (3 days at room temperature 56% relative humidity) is reported as “stayed stable”.
